The text below walks through data of ChEMBL document CHEMBL3091311, “Removal of human ether-à-go-go related gene (hERG) K+ channel affinity through rigidity: a case of clofilium analogues” (J Med Chem, 2013).

T2 sequence (Q12809 whole entry): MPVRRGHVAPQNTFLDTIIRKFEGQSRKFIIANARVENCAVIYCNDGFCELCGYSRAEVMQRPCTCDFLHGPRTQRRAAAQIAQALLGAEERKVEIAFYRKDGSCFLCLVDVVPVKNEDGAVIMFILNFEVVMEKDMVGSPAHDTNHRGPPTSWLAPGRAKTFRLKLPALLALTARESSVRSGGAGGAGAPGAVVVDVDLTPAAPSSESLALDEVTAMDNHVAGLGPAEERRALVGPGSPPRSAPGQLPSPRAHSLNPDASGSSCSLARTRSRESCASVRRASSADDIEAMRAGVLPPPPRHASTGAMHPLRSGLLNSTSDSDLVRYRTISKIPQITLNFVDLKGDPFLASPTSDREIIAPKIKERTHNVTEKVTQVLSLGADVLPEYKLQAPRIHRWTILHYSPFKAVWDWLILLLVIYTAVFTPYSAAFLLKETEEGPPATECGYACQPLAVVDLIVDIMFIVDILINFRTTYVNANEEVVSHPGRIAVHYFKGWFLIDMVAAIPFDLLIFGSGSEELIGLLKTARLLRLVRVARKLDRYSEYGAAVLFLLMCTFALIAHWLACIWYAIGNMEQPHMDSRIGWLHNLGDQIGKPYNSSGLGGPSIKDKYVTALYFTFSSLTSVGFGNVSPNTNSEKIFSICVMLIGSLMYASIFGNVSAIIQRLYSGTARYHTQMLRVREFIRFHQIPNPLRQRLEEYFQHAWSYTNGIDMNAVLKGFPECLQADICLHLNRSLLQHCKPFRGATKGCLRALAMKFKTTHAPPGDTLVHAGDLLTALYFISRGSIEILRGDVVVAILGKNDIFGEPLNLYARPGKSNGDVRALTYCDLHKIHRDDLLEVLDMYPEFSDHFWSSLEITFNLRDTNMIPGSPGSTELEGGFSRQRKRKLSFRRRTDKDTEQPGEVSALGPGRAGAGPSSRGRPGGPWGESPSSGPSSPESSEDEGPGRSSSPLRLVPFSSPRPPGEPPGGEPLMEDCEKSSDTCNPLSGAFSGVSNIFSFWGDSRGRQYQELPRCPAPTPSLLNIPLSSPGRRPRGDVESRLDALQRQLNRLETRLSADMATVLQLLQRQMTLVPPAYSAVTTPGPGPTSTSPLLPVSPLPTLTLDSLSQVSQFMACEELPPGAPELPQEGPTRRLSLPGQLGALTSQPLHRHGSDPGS

For one data set, the target named is T1, hERG (KCNH2) (Homo sapiens, UniProt Q12809). The data set is described as follows: Ratio of Ki for human ERG channel expressed in HEK293 cell membrane after 1 hr by scintillation counting analysis to IC50 for human ERG channel expressed in HEK293 cells after 15 mins by whole-cell patch clamp technique.
T1 sequence (Q12809 whole entry): as above
Conditions: not given
It counts as cell membranes.
Turning to `CCCCCCCN(CC)CC#CCCc1ccc(Cl)cc1`, the selectivity ratio stood at 2.

The next data set concerns the target T2, Voltage-gated inwardly rectifying potassium channel KCNH2 (Homo sapiens, UniProt Q12809). The data set can be described thus: Inhibition of human ERG channel expressed in HEK293 cells after 15 mins by whole-cell patch clamp technique. It counts as cell-based.
Conditions: not given
(The patch-clamp technique gives a direct electrical read-out from membranes.)
As to `CCCCCCCN(CC)CC#CCCc1ccc(Cl)cc1`, half-maximal inhibition (IC50) required 53 nM.

The next data set concerns the target T2, Voltage-gated inwardly rectifying potassium channel KCNH2. The data set can be described thus: Displacement of [3H]astemizole from human ERG channel expressed in HEK293 cell membrane after 1 hr by scintillation counting analysis.
Conditions: not given
A general note: Displacement assays read how much labelled ligand stays bound in the presence of the test substance.
`CCCCCCCN(CC)CC#CCCc1ccc(Cl)cc1`: the IC50 (in general, the concentration at which inhibition is half-maximal) worked out at 765 nM; the Ki (usually the dissociation constant of the complex between target and ligand, obtained from inhibition or displacement) stood at 148 nM.

Compound `CCCCCCC[N+](CC)(CC)CC#Cc1ccc(Cl)cc1` gave an IC50 of 40 nM.

Consider `CCCCCCCN(CC)C/C=C/c1ccc(Cl)cc1`, for which the IC50 stood at 243 nM.

As for `CCCCN(CC)CC#CCOCc1ccc(Cl)cc1`, the IC50 is 7370 nM.

`CCCCCCCN1CCC(C(=O)c2ccccc2)CC1` showed an IC50 of 124 nM.

Turning to `CCCCN(CC)C/C=C/c1ccc(Cl)cc1`, the IC50 stood at 1050 nM. This IC50 lies about 8.5-fold higher than the previous one.

For `CCCCCCCN(CC)C/C=C/CCc1ccc(Cl)cc1`, the half-inhibitory concentration (IC50) came to 238 nM.

`CCCCCCCN(CC)CC#Cc1ccc(Cl)cc1` returned an IC50 of 4080 nM.

As for `CCCCN(CC)CC#CCCc1ccc(C)cc1`, the IC50 was determined as 5590 nM.

With `CCCCCCCN(CC)CC#CCOC(c1ccccc1)c1ccccc1`, the IC50 was 970 nM.

On to `CCCCCCCN(CC)CC#CCCc1ccccc1`, for which the IC50 was determined as 4390 nM.

The next data set concerns the target T1, hERG (KCNH2). The data set is described as follows: Displacement of [3H]astemizole from human ERG channel expressed in HEK293 cell membrane at 10 uM after 1 hr by scintillation counting analysis. Conditions: membranes of HEK293 cells that express hERG, probe [3H]astemizole.
Regarding `CCCCN(CC)CC#CC#Cc1ccc(C)cc1`, the inhibition (as a rule, the percentage by which the read-out fell short of the control) at 1 h, 10 µM is 47%.

As for `CCCCN(CC)CC#CCCc1ccccc1`, the inhibition at 1 h, 10 µM came to 48%.
